Assay results: PubChem BioAssay (NCI)
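Where inhibition never reached the appropriate level, the endpoint shown equals the highest concentration tested. Otherwise, values were interpolated linearly from a five-concentration, 48-hour dose response in 96-well plates. Definition used: TGI = concentration required for complete inhibition of growth.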

What was measured:
Test in all cases: growth of human tumour cells (NCI), 48 h
SNB-19 CNS = system: SNB-19 CNS
SK-MEL-5 melanoma = system: SK-MEL-5 melanoma
RXF 393 renal = system: RXF 393 renal
RPMI-8226 leukemia = system: RPMI-8226 leukemia
MOLT-4 leukemia = system: MOLT-4 leukemia
OVCAR-8 ovarian = system: OVCAR-8 ovarian
HCC-2998 colon = system: HCC-2998 colon
BT-549 breast = system: BT-549 breast
MCF7 breast = system: MCF7 breast
NCI-H226 lung = system: NCI-H226 lung
SNB-75 CNS = system: SNB-75 CNS
DU-145 prostate = system: DU-145 prostate
UACC-257 melanoma = system: UACC-257 melanoma
SK-OV-3 ovarian = system: SK-OV-3 ovarian
SN12C renal = system: SN12C renal
SK-MEL-28 melanoma = system: SK-MEL-28 melanoma
T-47D breast = system: T-47D breast
IGROV1 ovarian = system: IGROV1 ovarian
NCI-H522 lung = system: NCI-H522 lung

| Compound | TGI (SNB-19 CNS) [µM] | TGI (SK-MEL-5 melanoma) [µM] | TGI (RXF 393 renal) [µM] | TGI (RPMI-8226 leukemia) [µM] | TGI (MOLT-4 leukemia) [µM] | TGI (OVCAR-8 ovarian) [µM] | TGI (HCC-2998 colon) [µM] | TGI (BT-549 breast) [µM] | TGI (MCF7 breast) [µM] | TGI (NCI-H226 lung) [µM] | TGI (SNB-75 CNS) [µM] | TGI (DU-145 prostate) [µM] | TGI (UACC-257 melanoma) [µM] | TGI (SK-OV-3 ovarian) [µM] | TGI (SN12C renal) [µM] | TGI (SK-MEL-28 melanoma) [µM] | TGI (T-47D breast) [µM] | TGI (IGROV1 ovarian) [µM] | TGI (NCI-H522 lung) [µM] |
| --- | --- | --- | --- | --- | --- | --- | --- | --- | --- | --- | --- | --- | --- | --- | --- | --- | --- | --- | --- |
| O=C(CN1C(=O)c2ccccc2C1=O)OCC1CCCN2CCCCC12 (configuration not stated) | > 100 | > 100 | > 100 | > 100 | > 100 | > 100 | > 100 | > 100 | > 100 | > 100 | > 100 | > 100 | > 100 | > 100 | > 100 | > 100 | > 100 |  |  |
| C[C@]12CCC(=O)C=C1CC[C@@H]1[C@@H]2CC[C@]2(C)C(=O)/C(=C\c3ccccc3)C[C@@H]12 | > 100 | > 48.6 | > 73.7 | > 26.1 | > 57 | > 100 | 35.9 | 72.6 | > 56.1 | 33.5 | > 100 | > 100 | > 100 | > 100 | 31.9 | > 81.4 | > 86.7 | > 100 |  |
| Cn1c(=O)c2c(nc3sc4ncccc4c(=O)n32)n(C)c1=O | > 100 | > 100 | > 100 | > 100 | > 100 | > 100 | > 100 | > 100 | > 100 | > 100 | > 100 | > 100 | > 100 | > 100 | > 100 | > 100 | > 100 | > 100 |  |
| c1ccc(-c2cc(-c3cc(-c4ccccc4)no3)on2)cc1 | > 100 | > 100 | > 100 | > 100 | 81.3 | 30.2 | > 100 | > 100 | > 100 | > 100 |  | > 100 | > 100 | 89.9 | > 100 | > 100 | > 100 | > 100 | > 100 |
| Oc1ccc2c3c1OC1c4[nH]c5c(c4CC4(O)C(C2)N(CC2CC2)CC[C@]314)CC1(O)C2Cc3ccc(O)c4c3[C@@]1(CCN2CC1CC1)C5O4 (some centres not stated) | 64 | > 100 | 82.2 | 60.8 | 53.9 | > 100 | 36.7 | > 100 | > 100 | 88.7 |  | > 100 | 37.4 | > 100 | > 100 | 41.4 | 47.6 | > 100 | 49.3 |
| Cc1ccc(C(=O)Nc2ccc(CP(=O)(O)O)cc2)cc1NC(=O)Nc1cc(C(=O)Nc2ccc(CP(=O)(O)O)cc2)ccc1C |  | > 100 | > 100 | > 100 | > 100 | > 100 | > 100 | > 100 | > 100 | > 100 | > 100 | > 100 | > 100 | > 100 | > 100 | > 100 | > 100 | > 100 | > 100 |
| O=C1/C(=C/c2cccc([N+](=O)[O-])c2)N=C(c2ccccc2)N1c1ccc2c(c1)Sc1cc(N3C(=O)/C(=C/c4cccc([N+](=O)[O-])c4)N=C3c3ccccc3)ccc1N2 | 40.2 | 31 | 62.2 | > 100 | > 100 | 78.8 | > 100 | 52.4 | 37.9 |  | 34.3 | > 100 | 37.5 | 30.9 |  | > 100 | 80 | 45.3 | 41.9 |
| CN(C)N1C(=O)CC2(CCN(CCCC(=O)c3ccc(F)cc3)CC2)C1=O | > 100 | > 100 | > 100 | > 100 | > 100 | > 100 |  | > 100 | > 100 | > 100 | > 100 | > 100 | > 100 | > 100 | > 100 | > 100 | > 100 | > 100 | > 100 |
| Nc1nc(Cl)cc(NCC2(CO)CCC(OCc3ccccc3)C2)n1 (configuration not stated) | > 100 | 18.8 | > 100 | > 100 | 34.3 | > 100 |  | 80.1 | 89.1 | 84.1 | 53.4 | > 100 | 45.1 | 62.4 | 93 | > 100 | 52.7 | > 100 | 37.9 |
| CCOC(=O)c1cc(C2(OC)CCN(Cc3ccccc3)C2=O)c(-c2cc(C)no2)[nH]1 (configuration not stated) | > 100 | > 100 | > 100 | > 100 | > 100 | > 100 | > 100 | > 100 | > 100 |  | > 100 | > 100 | > 100 | > 100 |  | > 100 | > 100 | > 100 | > 100 |
